The text below walks through data of patent publication US20020091273A1, “Method for the regioselective preparation of substituted benzo[g]quinoline3-carbonitriles and benzo[g]quinazolines” (American Home Products Corporation, priority 2000, published 2002).

Counter-ions that a name gives are not always drawn.

As usually defined, the melting point is the temperature of the solid-liquid transition. In the case of `COc1cc2cc3c(Nc4ccc(Br)cc4F)ncnc3cc2cc1OCCN1CCOCC1` (as salt: hydrochloride) [Example 32, (4-Bromo-2-fluorophenyl)-[7-methoxy-8-(2-morpholin-4-yl-ethoxy)benzo[g]quinazolin4-yl]-amine], the melting point was in the range of 210 to 225 °C.
To `COc1cc(Nc2ncnc3cc4cc(OCCN5CCOCC5)c(OC)cc4cc23)c(Cl)cc1Cl` (as salt: hydrochloride) [Example 33, (2,4-Dichloro-5-methoxyphenyl)-[7-methoxy-8-(2-morpholin-4-yl-ethoxy)benzo[g]-quinazolin-4-yl]-amine] belongs 258 to 260 °C; to `COc1cc(CBr)c(Br)cc1OCc1ccccc1` [Example 1, 5-(Benzyloxy)-1-bromo-2-(bromomethyl)-4-methoxybenzene], 103 to 105 °C.
To `COc1cc(CCC#N)c(Br)cc1OCc1ccccc1` [Example 2, 3-(4-Benzyloxy-2-bromo-5-methoxyphenyl)-propionitrile] belongs 52 to 53 °C; to `COc1cc2c(cc1OCc1ccccc1)C(C#N)C2` (centres unmarked) [Example 3, 4-Benzyloxy-3-methoxybicyclo[4.2.0]octa-1,3,5-triene-7-carbonitrile], 85 °C; to `COc1cc2c(cc1OCc1ccccc1)C(C#N)(Sc1ccc(Cl)cc1)C2` (centres unmarked) [Example 4, 4-Benzyloxy-7-(4-chloro-phenylsulfanyl)-3-methoxybicyclo [4.2.0]octa-1,3,5-triene-7-carbonitrile], 114 to 115 °C.
To `COc1cc2c(cc1OCc1ccccc1)C(C#N)(Sc1ccccc1)C2` (centres unmarked) [Example 5, 4-Benzyloxy-3-methoxy-7-phenylsulfanylbicyclo [4.2.0]octa-1,3,5-triene-7-carbonitrile] belongs 109 to 110 °C; to `COc1cc2cc(C(=O)OC(C)(C)C)c(N)cc2cc1OCc1ccccc1` [Example 7, 3-Amino-6-benzyloxy-7-methoxynaphthalene-2-carboxylic acid tert-butyl ester], 179 to 180 °C.
Regarding `COc1cc2cc3c(=O)c(C#N)c[nH]c3cc2cc1OCc1ccccc1` [Example 8, 8-Benzyloxy-7-methoxy-4-oxo-1,4-dihydrobenzo[g]quinoline-3-carbonitrile], the melting point was above 300 °C.
To `COc1cc2cc(C(=O)OC(C)(C)C)c(N)cc2cc1O` [Example 9, 3-Amino-6-hydroxy-7-methoxy-naphthalene-2-carboxylic acid tert-butyl ester] belongs 262 to 263 °C; to `COc1cc2cc(C(=O)OC(C)(C)C)c(N)cc2cc1OCCN1CCOCC1` [Example 10, 3-Amino-7-methoxy-6-(2-morpholin-4-yl-ethoxy)-naphthalene-2-carboxylic acid tert-butyl ester], 125 to 127 °C.
Under `COc1cc2cc3c(=O)[nH]cnc3cc2cc1OCCN1CCOCC1` [Example 11, 7-Methoxy-8-(2-morpholin4-yl-ethoxy)-3H-benzo[g]quinazolin-4-one] stands 230 to 232 °C.
Under `COc1cc2cc3c(=O)c(C#N)c[nH]c3cc2cc1OCCN1CCOCC1` [Example 12, 7-Methoxy-8-(2-morpholin-4-yl-ethoxy)-4-oxo-1,4-dihydrobenzo[g]quinoline-3-carbonitrile] stands 275 °C (dec.); under `COc1cc2cc3c(=O)c(C#N)c[nH]c3cc2cc1O` [Example 13, 8-Hydroxy-7-methoxy-4-oxo-1,4-dihydrobenzo[g]quinoline-3-carbonitrile], above 300 °C; under `COc1cc2cc3c(Cl)c(C#N)cnc3cc2cc1O` [Example 14, 4-Chloro-8-hydroxy-7-methoxybenzo[g]quinoline-3-carbonitrile], above 300 °C.
As to `COc1cc2cc3c(Nc4ccc(Sc5nccn5C)c(Cl)c4)c(C#N)cnc3cc2cc1O` [Example 15, 4-[3-Chloro-4-(1-methyl-1 H-imidazol-2-ylsulfanyl)phenylamino]-8-hydroxy-7-methoxybenzo[g]quinoline-3-carbonitrile], the melting point is above 300 °C.
Under `COc1cc2cc3c(Nc4ccc(Sc5nccn5C)c(Cl)c4)c(C#N)cnc3cc2cc1OCCN1CCOCC1` [Example 17, 4-[3-Chloro-4-(1-methyl-1H-imidazol-2-ylsulfanyl)phenylamino]-7-methoxy-8-(2-morpholin-4-yl-ethoxy)benzo[g]quinoline-3-carbonitrile] stands above 300 °C; under `COc1cc2cc3c(Nc4ccc(Sc5nccn5C)c(Cl)c4)c(C#N)cnc3cc2cc1OCCn1ccnn1` [Example 22, 4-[3-Chloro-4-(1-methyl-1H-imidazol-2-ylsulfanyl)phenylamino]-7-methoxy-8-(2-[1,2,3]triazol-1-yl-ethoxy)benzo[g]quinoline-3-carbonitrile], 201 to 207 °C; under `COc1cc(Nc2c(C#N)cnc3cc4cc(OCCCCl)c(OC)cc4cc23)c(Cl)cc1Cl` [Example 24, 8-(3-Chloropropoxy)-4-(2,4-dichloro-5-methoxyphenylamino)-7-methoxybenzo[g]quinoline-3-carbonitrile], 220 to 223 °C.
To `COc1cc(Nc2c(C#N)cnc3cc4cc(OCCCN5CCOCC5)c(OC)cc4cc23)c(Cl)cc1Cl` [Example 25, 4-(2,4-Dichloro-5-methoxyphenylamino)-7-methoxy-8-(3-morpholin-4-yl-propoxy)benzo[g]quinoline-3-carbonitrile] belongs 205 to 208 °C; to `COc1cc2cc(C#N)c(N)cc2cc1OCc1ccccc1` [Example 29, 3-Amino-6-benzyloxy-7-methoxynaphthalene-2-carbonitrile], 241 to 243 °C.
To `COc1cc(Nc2ncnc3cc4cc(OCc5ccccc5)c(OC)cc4cc23)c(Cl)cc1Cl` [Example 30, (8-Benzyloxy-7-methoxybenzo[g]quinazolin-4-yl)-(2,4-dichloro-5-methoxyphenyl)amine] belongs 275 to 280 °C; to `COc1cc2cc3c(Cl)ncnc3cc2cc1OCCN1CCOCC1` [Example 31, 4-Chloro-7-methoxy-8-(2-morpholin-4-yl-ethoxy)benzo[g]quinazoline], 166 to 168 °C.
